Assay type in all cases: biochemical
Assay [1] deals with T1, hCA I (Homo sapiens, UniProt P00915).
T1 construct: made in house
In words: stopped-flow CO2 hydrase assay, hCA I. To be noted: recombinant enzyme, 15 min preincubation, pH 8.3, mean from 3 assays.
Description: (§1) An Applied Photophysics stopped-flow instrument (Applied Photophysics, Leatherhead, UK) was used for assaying the CA-catalyzed CO2 hydration activity [31]. […] The uncatalyzed rates were determined in the same manner and subtracted from the total observed rates. Stock solutions of inhibitor (0.1 mM) were prepared in distilled-deionized water and dilutions up to 0.005 nM were done thereafter with the assay buffer. Inhibitor and enzyme solutions were preincubated together for 15 min at room temperature prior to assay, in order to allow formation of the E–I complex. The inhibition constants were obtained by non-linear least-squares methods using PRISM 3 and the ChengPrusoff equation, as reported earlier, and represent the mean from at least three different determinations. All CA isozymes were recombinant ones obtained in-house.

Assay [2] deals with T2, hCA II (Homo sapiens, UniProt P00918).
T2 construct: made in house
In words: stopped-flow CO2 hydrase assay, hCA II. To be noted: recombinant enzyme, 15 min preincubation, pH 8.3, mean from 3 assays.
Description: as §1

For assay [3], the target named is T3, hCA IV (Homo sapiens, UniProt P22748).
T3 construct: made in house
T3 sequence (P22748 19-312): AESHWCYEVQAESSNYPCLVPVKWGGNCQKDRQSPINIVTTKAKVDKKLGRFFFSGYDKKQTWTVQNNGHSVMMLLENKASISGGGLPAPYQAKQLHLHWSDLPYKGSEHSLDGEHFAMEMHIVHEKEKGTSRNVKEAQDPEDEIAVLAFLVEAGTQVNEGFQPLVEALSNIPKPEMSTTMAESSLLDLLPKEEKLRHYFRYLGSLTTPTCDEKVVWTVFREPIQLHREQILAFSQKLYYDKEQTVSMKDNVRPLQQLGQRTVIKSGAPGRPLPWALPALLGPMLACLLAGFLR
Description: stopped-flow CO2 hydrase assay, hCA IV. To be noted: recombinant enzyme, 15 min preincubation, pH 8.3, mean from 3 assays.
Description: as §1

The target of assay [4] is T4, hCA IX (Homo sapiens, UniProt Q16790).
T4 construct: made in house
In words: stopped-flow CO2 hydrase assay, hCA IX. The conditions noted are these: for Selectivity II/IX: ratio Ki hCA II / Ki hCA IX; for pKi: recombinant enzyme, 15 min preincubation, pH 8.3, mean from 3 assays.
Description: as §1

The target in assay [5] is T5, hCA XII (Homo sapiens, UniProt O43570).
T5 construct: made in house
T5 sequence (O43570 25-354): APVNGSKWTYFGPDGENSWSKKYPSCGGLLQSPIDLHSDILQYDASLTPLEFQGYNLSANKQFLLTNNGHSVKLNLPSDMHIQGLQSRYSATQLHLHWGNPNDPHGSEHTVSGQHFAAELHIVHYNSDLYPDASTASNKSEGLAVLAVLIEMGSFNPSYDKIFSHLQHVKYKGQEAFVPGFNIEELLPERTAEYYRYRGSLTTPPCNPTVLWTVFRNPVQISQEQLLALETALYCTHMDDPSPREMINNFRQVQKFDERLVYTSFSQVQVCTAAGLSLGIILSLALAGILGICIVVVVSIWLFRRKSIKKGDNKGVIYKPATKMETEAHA
Description: stopped-flow CO2 hydrase assay, hCA XII. To be noted: for Selectivity II/XII: ratio Ki hCA II / Ki hCA XII; for pKi: recombinant enzyme, 15 min preincubation, pH 8.3, mean from 3 assays.
Description: as §1

pKi: −log10 of the molar value.

T1 sequence (P00915 whole entry): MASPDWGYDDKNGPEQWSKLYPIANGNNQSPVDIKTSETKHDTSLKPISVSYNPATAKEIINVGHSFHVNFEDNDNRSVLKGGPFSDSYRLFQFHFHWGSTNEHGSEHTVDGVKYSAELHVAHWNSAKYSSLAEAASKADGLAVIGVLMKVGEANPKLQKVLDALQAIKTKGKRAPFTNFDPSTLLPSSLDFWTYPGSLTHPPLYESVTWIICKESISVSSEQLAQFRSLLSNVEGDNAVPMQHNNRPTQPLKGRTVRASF

As for `NS(=O)(=O)c1ccc(CCNc2nc(NC(Cc3c[nH]c4ccccc34)C(=O)O)nc(NC(Cc3c[nH]c4ccccc34)C(=O)O)n2)cc1` (stereo not shown) [compound 20, 2,2′-[(6-({2-(4-sulfamoylphenyl)ethyl}amino)-1,3,5-triazine-2,4-diyl)diimino]bis(3-(1H-indol-3-yl)propanoic acid)], the pKi in assay [1] is 7.38; in assay [2] it was 8.45; in assay [3], 6.27; in assay [4], 6.51; in assay [5], 8.08. Besides, the “Selectivity II/IX” value in assay [4] was found to be 0.01. The “Selectivity II/XII” value in assay [5] is 0.40.

With `NC(=O)CCC(Nc1nc(NCCc2ccc(S(N)(=O)=O)cc2)nc(NC(CCC(N)=O)C(=O)O)n1)C(=O)O` (stereo not shown) [compound 24, 2,2′-[(6-({2-(4-sulfamoylphenyl)ethyl}amino)-1,3,5-triazine-2,4-diyl)diimino]bis(4-carbamoylbutanoic acid)], the pKi was 6.16 in assay [1]; 6.72 in assay [2]; less than 5.00 in assay [3]; 6.32 in assay [4]; 7.24 in assay [5]. For the same compound, the “Selectivity II/IX” value in assay [4] is recorded as 0.40. Besides, the “Selectivity II/XII” value in assay [5] came to 3.40.

Consider `CC(O)C(Nc1nc(Nc2ccc(S(N)(=O)=O)cc2)nc(NC(C(=O)O)C(C)O)n1)C(=O)O` (stereo not shown) [compound 8], for which the pKi in assay [1] was 5.14; in assay [2], 6.04; in assay [3], 5.31; in assay [4], 6.06; in assay [5] it was 7.46. Besides, the “Selectivity II/IX” value in assay [4] is reported as 1.04. Besides, the “Selectivity II/XII” value in assay [5] is given as 26.10.

As for `NS(=O)(=O)c1ccc(CCNc2nc(NC(Cc3ccc(O)cc3)C(=O)O)nc(NC(Cc3ccc(O)cc3)C(=O)O)n2)cc1` (stereo not shown) [compound 19, 2,2′-[(6-({2-(4-sulfamoylphenyl)ethyl}amino)-1,3,5-triazine-2,4-diyl)diimino]bis(3-(4-hydroxyphenyl)propanoic acid)], the negative logarithm of the Ki (pKi) was 7.22 in assay [1]; 7.89 in assay [2]; 6.06 in assay [3]; 7.21 in assay [4]; 8.12 in assay [5]. Further, the “Selectivity II/IX” value in assay [4] came out at 0.21. The “Selectivity II/XII” value in assay [5] was found to be 1.70.

On to `NS(=O)(=O)c1ccc(Nc2nc(NC(Cc3ccc(O)cc3)C(=O)O)nc(NC(Cc3ccc(O)cc3)C(=O)O)n2)cc1` (stereo not shown) [compound 5], for which the pKi in assay [1] is 7.01; in assay [2], 8.44; in assay [3], 7.13; in assay [4] it was 7.24; in assay [5], 8.03. Besides, the “Selectivity II/IX” value in assay [4] turned out to be 0.06. Also, the “Selectivity II/XII” value in assay [5] is reported as 0.40.

With `NS(=O)(=O)c1ccc(CCNc2nc(NC(CO)C(=O)O)nc(NC(CO)C(=O)O)n2)cc1` (stereo not shown) [compound 21, 2,2′-[(6-({2-(4-sulfamoylphenyl)ethyl}amino)-1,3,5-triazine-2,4-diyl)diimino]bis(3-hydroxypropanoic acid)], the pKi was 6.09 in assay [1]; 6.56 in assay [2]; less than 5.00 in assay [3]; 7.07 in assay [4]; 7.57 in assay [5]. The “Selectivity II/IX” value in assay [4] was found to be 3.19. The “Selectivity II/XII” value in assay [5] is 10.10.

As for `CC(Nc1nc(NCc2ccc(S(N)(=O)=O)cc2)nc(NC(C)C(=O)O)n1)C(=O)O` (stereo not shown) [compound 11, 2,2′-[(6-({4-sulfamoylbenzyl}amino)-1,3,5-triazine-2,4-diyl)diimino]dipropanoic acid], the pKi in assay [1] is 6.20; in assay [2], 6.74; in assay [3], 6.33; in assay [4] it was 7.20; in assay [5], 8.03. For the same compound, the “Selectivity II/IX” value in assay [4] stood at 2.87. In addition, the “Selectivity II/XII” value in assay [5] amounted to 19.60.

(Values after paper PMC8537140, “Synthesis and Inhibition Activity Study of Triazinyl-Substituted Amino(alkyl)-benzenesulfonamide Conjugates with Polar and Hydrophobic Amino Acids as Inhibitors of Human Carbonic Anhydrases I, II, IV, IX, and XII” (International Journal of Molecular Sciences, 2021).)
